Measurements: patent publication US9693556B2, “Herbicidal pyridazinone derivatives” (SYNGENTA LIMITED, priority 2011, dated 2017)

Tests used:
Format in all cases: in vivo
[1] = test system: Alopecurus myosuroides (ALOMY); assay: Pre-emergence herbicidal glasshouse test on Alopecurus myosuroides; conditions: pre-emergence; 1000 g/h; evaluated after 13 days
Procedure: (§1) Seeds of a variety of test species are sown in standard soil in pots (Alopecurus myosuroides (ALOMY), Setaria faberi (SETFA), Echinochloa crus-galli (ECHCG), Solanum nigrum (SOLNI), Amaranthus retoflexus (AMARE), Ipomoea hederacea (IPOHE)). After cultivation for one day (pre-emergence) or after 8 days cultivation (post-emergence) under controlled conditions in a glasshouse (at 24/16° C., day/night; 14 hours light; 65% humidity), the plants are sprayed with an aqueous spray solution derived from the formulation of the technical active ingredient in acetone/water (50:50) solution containing 0.5% Tween 20 (polyoxyethelyene sorbitan monolaurate, CAS RN 9005-64-5). Compounds are applied at 1000 g/h. The test plants are then grown in a glasshouse under controlled conditions in a glasshouse (at 24/16° C., day/night; 14 hours light; 65% humidity) and watered twice daily. After 13 days for pre and post-emergence, the test is evaluated for the percentage herbicidal damage caused to the plant. The biological activities are shown in the following table on a five point scale (5=80-100% damage; 4=60-79% damage; 3=40-59% damage; 2=20-39% damage; 1=0-19% damage).

[2] = test system: Setaria faberi (SETFA); assay: Pre-emergence herbicidal glasshouse test on Setaria faberi; conditions: pre-emergence; 1000 g/h; evaluated after 13 days
Procedure: as §1

[3] = test system: Echinochloa crus-galli (ECHCG); assay: Pre-emergence herbicidal glasshouse test on Echinochloa crus-galli; conditions: pre-emergence; 1000 g/h; evaluated after 13 days
Procedure: as §1

[4] = test system: Ipomoea hederacea (IPOHE); assay: Pre-emergence herbicidal glasshouse test on Ipomoea hederacea; conditions: pre-emergence; 1000 g/h; evaluated after 13 days
Procedure: as §1

[5] = test system: Alopecurus myosuroides (ALOMY); assay: Post-emergence herbicidal glasshouse test on Alopecurus myosuroides; conditions: post-emergence; 1000 g/h; evaluated after 13 days
Procedure: as §1

[6] = test system: Setaria faberi (SETFA); assay: Post-emergence herbicidal glasshouse test on Setaria faberi; conditions: post-emergence; 1000 g/h; evaluated after 13 days
Procedure: as §1

[7] = test system: Echinochloa crus-galli (ECHCG); assay: Post-emergence herbicidal glasshouse test on Echinochloa crus-galli; conditions: post-emergence; 1000 g/h; evaluated after 13 days
Procedure: as §1

[8] = test system: Solanum nigrum (SOLNI); assay: Post-emergence herbicidal glasshouse test on Solanum nigrum; conditions: post-emergence; 1000 g/h; evaluated after 13 days
Procedure: as §1

[9] = test system: Amaranthus retoflexus (AMARE); assay: Post-emergence herbicidal glasshouse test on Amaranthus retoflexus; conditions: post-emergence; 1000 g/h; evaluated after 13 days
Procedure: as §1

[10] = test system: Ipomoea hederacea (IPOHE); assay: Post-emergence herbicidal glasshouse test on Ipomoea hederacea; conditions: post-emergence; 1000 g/h; evaluated after 13 days
Procedure: as §1

[11] = test system: Solanum nigrum (SOLNI); assay: Pre-emergence herbicidal glasshouse test on Solanum nigrum; conditions: pre-emergence; 1000 g/h; evaluated after 13 days
Procedure: as §1

SMILES | PRE Application ALOMY herbicidal damage (five point scale) [1] | PRE Application SETFA herbicidal damage (five point scale) [2] | PRE Application ECHCG herbicidal damage (five point scale) [3] | PRE Application IPOHE herbicidal damage (five point scale) [4] | POST Application ALOMY herbicidal damage (five point scale) [5] | POST Application SETFA herbicidal damage (five point scale) [6] | POST Application ECHCG herbicidal damage (five point scale) [7] | POST Application SOLNI herbicidal damage (five point scale) [8] | POST Application AMARE herbicidal damage (five point scale) [9] | POST Application IPOHE herbicidal damage (five point scale) [10] | PRE Application SOLNI herbicidal damage (five point scale) [11]
CC(C)n1ncc(-c2c(Cl)ccc(Cl)c2Cl)c(O)c1=O [Compound 1.015] | 1 (1=0-19% damage) | 1 (1=0-19% damage) | 1 (1=0-19% damage) | 1 (1=0-19% damage) | 1 (1=0-19% damage) | 1 (1=0-19% damage) | 2 (2=20-39% damage) | 4 (4=60-79% damage) | 2 (2=20-39% damage) | 4 (4=60-79% damage) | –
Cc1cccn(-c2cnn(C)c(=O)c2O)c1=O [Compound 1.062] | 1 (1=0-19% damage) | 1 (1=0-19% damage) | 1 (1=0-19% damage) | 1 (1=0-19% damage) | 2 (2=20-39% damage) | 4 (4=60-79% damage) | 5 (5=80-100% damage) | 4 (4=60-79% damage) | 5 (5=80-100% damage) | 5 (5=80-100% damage) | 1 (1=0-19% damage)
Cn1ncc(-c2ccccc2[N+](=O)[O-])c(O)c1=O [Compound 1.111] | 1 (1=0-19% damage) | 1 (1=0-19% damage) | 1 (1=0-19% damage) | 2 (2=20-39% damage) | 1 (1=0-19% damage) | 1 (1=0-19% damage) | 1 (1=0-19% damage) | 3 (3=40-59% damage) | 2 (2=20-39% damage) | 1 (1=0-19% damage) | –
CCCn1ncc(-c2ccc(C(F)(F)F)cc2Cl)c(O)c1=O [Compound 1.126] | 1 (1=0-19% damage) | 1 (1=0-19% damage) | 1 (1=0-19% damage) | 1 (1=0-19% damage) | 1 (1=0-19% damage) | 2 (2=20-39% damage) | 2 (2=20-39% damage) | 4 (4=60-79% damage) | 5 (5=80-100% damage) | 3 (3=40-59% damage) | 1 (1=0-19% damage)
